Source: patent publication US8415359B2, “Phenylpyrrole derivative” (Daiichi Sankyo Company, Limited, priority 2008, dated 2013)

What follows are compounds tested against T1, human pancreatic GK (human glucokinase variant 1, GST-fused protein) (Homo sapiens, UniProt P35557) (assay: GK activity test (GK activation rate)). Settings: test compound 1 μM; glucose 5 mM; 30 min at room temperature; absorbance at 340 nm with test compound / without test compound.
T1 construct: made in house; host or cells: Escherichia coli (such as BL21 or JM109)
T1 sequence (P35557 1-465): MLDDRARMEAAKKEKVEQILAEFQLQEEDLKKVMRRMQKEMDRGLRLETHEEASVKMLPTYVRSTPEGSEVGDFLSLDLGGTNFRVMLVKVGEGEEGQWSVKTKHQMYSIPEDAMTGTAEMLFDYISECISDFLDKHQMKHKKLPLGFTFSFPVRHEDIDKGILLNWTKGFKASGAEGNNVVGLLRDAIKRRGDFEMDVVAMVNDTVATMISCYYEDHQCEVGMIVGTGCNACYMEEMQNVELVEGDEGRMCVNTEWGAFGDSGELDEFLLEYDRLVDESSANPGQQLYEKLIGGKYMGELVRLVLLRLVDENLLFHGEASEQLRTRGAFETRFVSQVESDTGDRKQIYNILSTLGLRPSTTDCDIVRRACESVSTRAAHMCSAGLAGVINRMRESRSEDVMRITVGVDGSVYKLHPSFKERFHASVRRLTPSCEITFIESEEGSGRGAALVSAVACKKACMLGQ
Type: biochemical
Description: cDNA encoding human pancreatic GK polypeptide (GenBank Accession No. NM_000162, human glucokinase variant 1) was cloned from a human cDNA library by polymerase chain reaction (PCR), and introduced into a glutathione S-transferase (GST)-fused protein expression vector (GEX4T, GE Healthcare Bioscience). The vector was introduced into Escherichia coli (such as BL21 or JM109, Invitrogen), and the transformed E. coli was cultured overnight at 37° C. followed by recovery of the cells. After freezing and thawing the recovered cells, the cells were suspended in phosphate buffer containing Triton-X at a final concentration of 1% followed by disrupting the cells with an ultrasonic homogenizer. The supernatant obtained by low-speed centrifugation treatment of the homogenate (10,000×g, 30 minutes) was further subjected to high-speed centrifugation (100,000×g, 10 minutes) followed by recovering the supernatant and purifying the fused protein using a GST fused protein purification system (Bulk GST Purification Module, GE Healthcare Bioscience). The GK fused protein was divided into smaller aliquots and stored at −80° C.
GK activity was measured using the GK purified in (1) above. More specifically, an enzyme solution was prepared by adding the purified GK of (1) above and glucose-6-phosphate dehydrogenase (Sigma) to solution 1 of a glucose assay kit (D-Glucose UV Method, Roche Diagnostics). The enzyme solution, a test compound diluent and glucose (final concentration: 5 mM) were mixed in a 96-well ELISA plate, and allowed to react for 30 minutes at room temperature. Following completion of the reaction, absorbance at a wavelength of 340 nm was measured using SpectraMax Plus (Molecular Probe). Furthermore, unreacted (when glucose was not added) absorbance was used for the background.
GK activation rates were indicated with values represented by the following numerical formula: (absorbance after reacting for 30 minutes when test compound added)/(absorbance after reacting for 30 minutes when test compound not added).
In the case of `COC[C@H](C)Oc1cc(Oc2ccc(S(C)(=O)=O)nc2)cc(-c2ccc(C3=N[C@H](C)[C@H](CO)O3)[nH]2)c1` [Example 89, {(4R,5R)-2-[5-(3-[(1S)-2-Methoxy-1-methylethoxy]-5-{[6-(methylsulfonyl)pyridin-3-yl]oxy}phenyl)-1H-pyrrol-2-yl]-4-methyl-4,5-dihydro-1,3-oxazol-5-yl}methanol], the “GK Activation Rate” value is reported as 2.3.
In the case of `COC[C@H](C)Oc1cc(Oc2ccc(S(C)(=O)=O)nc2)cc(-c2ccc(C3=N[C@H](CO)[C@H](C)O3)[nH]2)c1` [Example 91, {(4R,5S)-2-[5-(3-[(1S)-2-Methoxy-1-methylethoxy]-5-{[6-(methylsulfonyl)pyridin-3-yl]oxy}phenyl)-1H-pyrrol-2-yl]-5-methyl-4,5-dihydro-1,3-oxazol-4-yl}methanol], the “GK Activation Rate” value is reported as 2.6.
In the case of `COC[C@H](C)Oc1cc(Oc2ccc(S(C)(=O)=O)nc2)cc(-c2ccc(C3=N[C@H]([C@H](C)O)CO3)[nH]2)c1` [Example 93, (1S)-1-{(4S)-2-[5-(3-[(1S)-2-Methoxy-1-methylethoxy]-5-{[6-(methylsulfonyl)pyridin-3-yl]oxy}phenyl)-1H-pyrrol-2-yl]-4,5-dihydro-1,3-oxazol-4-yl}ethanol], the “GK Activation Rate” value is reported as 2.4.
For `COC[C@H](C)Oc1cc(Oc2ccc(S(C)(=O)=O)nc2)cc(-c2ccc(C3=N[C@H]([C@@H](C)O)CO3)[nH]2)c1` [Example 95, (1R)-1-{(4S)-2-[5-(3-[(1S)-2-Methoxy-1-methylethoxy]-5-{[6-(methylsulfonyl)pyridin-3-yl]oxy}phenyl)-1H-pyrrol-2-yl]-4,5-dihydro-1,3-oxazol-4-yl}ethanol], the “GK Activation Rate” value was 2.5.
`Cc1nnc(-c2ccc(-c3cc(Oc4cnc(S(C)(=O)=O)cn4)cc(O[C@@H](C)CO)c3)[nH]2)o1` [Example 98, (2S)-2-(3-[5-(5-Methyl-1,3,4-oxadiazol-2-yl)-1H-pyrrol-2-yl]-5-{[5-(methylsulfonyl)pyrazin-2-yl]oxy}phenoxy)propan-1-ol] was tested, and the “GK Activation Rate” value was 1.9.
`C[C@H]1CN=C(c2ccc(-c3cc(Oc4cnc(S(C)(=O)=O)cn4)cc(O[C@@H](C)CO)c3)[nH]2)O1` [Example 100, (2S)-2-(3-{5-[(5S)-5-Methyl-4,5-dihydro-1,3-oxazol-2-yl]-1H-pyrrol-2-yl}-5-{[5-(methylsulfonyl)pyrazin-2-yl]oxy}phenoxy)propan-1-ol] was tested, and the “GK Activation Rate” value was 1.9.
In the case of `COC[C@H](C)Oc1cc(Oc2cnc(S(C)(=O)=O)cn2)cc(-c2ccc(C3=NC[C@H](CO)O3)[nH]2)c1` [Example 101, {(5R)-2-[5-(3-[(1S)-2-Methoxy-1-methylethoxy]-5-{[5-(methylsulfonyl)pyrazin-2-yl]oxy}phenyl)-1H-pyrrol-2-yl]-4,5-dihydro-1,3-oxazol-5-yl}methanol], the “GK Activation Rate” value is reported as 1.9.
In the case of `COC[C@H](C)Oc1cc(Oc2cnc(S(C)(=O)=O)cn2)cc(-c2ccc(C3=NC(O)[C@H](C)O3)[nH]2)c1` (stereo partly drawn) [Example 103, (5S)-2-[5-(3-[(1S)-2-Methoxy-1-methylethoxy]-5-{[5-(methylsulfonyl)pyrazin-2-yl]oxy}phenyl)-1H-pyrrol-2-yl]-5-methyl-4,5-dihydro-1,3-oxazol-4-ol], the “GK Activation Rate” value is reported as 2.1.
In the case of `C[C@@H]1COC(c2ccc(-c3cc(Oc4cnc(S(C)(=O)=O)cn4)cc(O[C@@H](C)CO)c3)[nH]2)=N1` [Example 107, (2S)-2-(3-{5-[(4R)-4-Methyl-4,5-dihydro-1,3-oxazol-2-yl]-1H-pyrrol-2-yl}-5-{[5-(methylsulfonyl)pyrazin-2-yl]oxy}phenoxy)propan-1-ol], the “GK Activation Rate” value is reported as 2.0.
In the case of `CC[C@@H]1COC(c2ccc(-c3cc(Oc4cnc(S(C)(=O)=O)cn4)cc(O[C@@H](C)CO)c3)[nH]2)=N1` [Example 108, (2S)-2-(3-{5-[(4R)-4-Ethyl-4,5-dihydro-1,3-oxazol-2-yl]-1H-pyrrol-2-yl}-5-{[5-(methylsulfonyl)pyrazin-2-yl]oxy}phenoxy)propan-1-ol], the “GK Activation Rate” value is reported as 2.0.
